Data as given in PubChem BioAssay AID1918935 (Molecular Pharmacology Branch, DTP, NCI, 2023).
pIC50: −log10 of the molar value.

Tested on: 324938-238-R-J1-PDC complex spheroid viability
Assay: Anticancer human tumor 324938-238-R-J1-PDC patient-derived bladder carcinoma cell line growth inhibition
Conditions: for pIC50: curve of first compound; for viability, T/C: stronger effect = lower value
Excerpt: Multicellular complex tumor spheroid response to LSD1 Inhibitor Iadademstat in combination with a variety of drugs and investigational agents in selected tumor cell lines
The current study was undertaken to assess response to LSD1 inhibitors in combination with standard-of-care drugs and investigational agents in solid tumor complex spheroid models as well as in the K-562 leukemia. Complex spheroids include a stromal component modeled by human endothelial cells (HUVEC) and fibroblasts modeled by human mesenchymal stem cells (MSCs). The concentration ranges selected for each drug and investigational agent were based upon clinically achievable concentrations if the clinical Cmax of the agent was known.
Compounds. The drugs and investigational agents used in this study are listed on Table 1. All of the agents used, including staurosporine (NSC755774) and gemcitabine (NSC613327), were obtained from the Developmental Therapeutics Program, NCI. FDA-approved anticancer drugs are available from the NCI at http://dtp.nci.nih.gov/branches/dscb/oncology_drugset_explanation.html. Drugs and investigational agents were >95% pure by proton nuclear magnetic resonance (NMR) and liquid chromatography/mass spectrometry (LC/MS). Stock solutions were prepared at 400x in DMSO, stored at -70 degrees C, and diluted in fresh medium prior to their use. The final concentration of DMSO in cell culture wells never exceeded 0.25% (v/v). The FDA-approved anticancer drug set is available from the Developmental Therapeutics Program at https://dtp.cancer.gov/organization/dscb/obtaining/available_plates.htm. All drugs and investigational agents were tested over a range starting from a high concentration at or near the clinical Cmax and decreasing in half-log increments. If the clinical Cmax for an agent had not been determined, the highest concentration tested was 10 microM.
Cell Lines. The patient-derived cancer cell (PDC) lines: 292921-168-R-J2-PDC, K24384-001-R-PDC, and 521955-158-R2-J5-PDC pancreatic carcinomas, 556581-035-R-J1 ovarian carcinoma, 324938-238-R-J1-PDC, 855422-203-R-J1-PDC and 883617-216-R-J1-PDC urothelial bladder carcinomas, 743489-274-T-PDC renal cell carcinoma, 138582-R-J1 Merkel cell tumor, K60290-347-R-J1 and K57222-313-R-J1-PDC glioblastomas, 653999-131-R-J2-PDC, LG0703-F948-PDC, and 349418-098-R-PDC non-small cell lung carcinomas, 885512-296-R-J2-PDC, 171881-019-R-J1-PDC breast carcinomas and 186277-243-T-J2-PDC and 233499-124-R-J2-PDC colon carcinomas were obtained from the NCI Patient-Derived Models Repository (PDMR, https://pdmr.cancer.gov). The established cell lines NCI/ADR-RES (RRID:CVCL_14520 and OVCAR-5 (RRID:CVCL_1628) ovarian carcinomas, 786-O (RRID:CVCL_1051) and A498 (RRID:CVCL_A498) renal cell carcinoma, NCI-H211 (ATCC, cat. CRL-5824; RRID:CVCL_1529), NCI-H196 (ATCC, cat. CRL-5823, RRID:CVCL_1509), SW 1271 (ATCC, cat. CRL-2177, RRID:CVCL_1716) and NCI-H1876 (ATCC, cat. CRL-5902, RRID:CVCL_1503) small cell lung carcinomas, MDA-MB-231 (RRID:CVCL_0062) and MDA-MB-468 (RRID:CVCL_0419)breast carcinomas (10-12). Pooled donor human umbilical vein endothelial cells (HUVEC, Lonza, cat. CC-2519) and human mesenchymal stem cells (hMSC, Lonza, cat. PT-2501) were purchased from Lonza (Walkersville, MD).
Cell Culture. All cells were maintained in an incubator at 37 degrees C and 5% CO2 with 95% humidity. The PDC lines were cultured according to standard operating procedures established by the NCI PDMR (https://pdmr.cancer.gov). Briefly all PDCs were thawed and cultured in Matrigel-coated flasks prepared with a working solution of 1X Ham's F-12 nutrient mix, without supplementation (Invitrogen, Waltham, MA, cat. 11765054), 100 U/mL penicillin-streptomycin (Invitrogen, cat. 15140122), and 2.5% Matrigel (Corning Inc., Corning, NY, cat. 354248) for the first three passages. […]
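Also: spheroids also contain HUVEC and human MSCs and agents combined with iadademstat; spheroids exposed to agents for 7 days before readout.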

## COc1cc(C2c3cc4c(cc3C(OC3OC5COC(C)OC5C(O)C3O)C3COC(=O)C23)OCO4)cc(OC)c1O (stereo not given) + NC1CC1c1ccc(-c2cccc(O)c2)cc1
Second compound 0.1 µM
  pIC50: 7.21
Second compound 0.316 µM
  pIC50: 7.22
Second compound 1 µM
  pIC50: 7.34
Second compound 3.16 µM
  pIC50: 7.33
Second compound 10 µM
  pIC50: 7.42
Second compound 0.1 µM, first compound 0.00949 µM
  viability, T/C: 82.3%
Second compound 0.1 µM, first compound 0.03 µM
  viability, T/C: 74.6%
Second compound 0.1 µM, first compound 0.0949 µM
  viability, T/C: 35.1%
Second compound 0.1 µM, first compound 0.3 µM
  viability, T/C: 18.9%
Second compound 0.1 µM, first compound 0.949 µM
  viability, T/C: 20.9%
Second compound 0.1 µM, first compound 3 µM
  viability, T/C: 10.6%
Second compound 0.316 µM, first compound 0.00949 µM
  viability, T/C: 69.8%
Second compound 0.316 µM, first compound 0.03 µM
  viability, T/C: 67.1%
Second compound 0.316 µM, first compound 0.0949 µM
  viability, T/C: 38.4%
Second compound 0.316 µM, first compound 0.3 µM
  viability, T/C: 22.2%
Second compound 0.316 µM, first compound 0.949 µM
  viability, T/C: 17.6%
Second compound 0.316 µM, first compound 3 µM
  viability, T/C: 8.16%
Second compound 1 µM, first compound 0.00949 µM
  viability, T/C: 67.9%
Second compound 1 µM, first compound 0.03 µM
  viability, T/C: 60%
Second compound 1 µM, first compound 0.0949 µM
  viability, T/C: 34%
Second compound 1 µM, first compound 0.3 µM
  viability, T/C: 19.6%
Second compound 1 µM, first compound 0.949 µM
  viability, T/C: 19.2%
Second compound 1 µM, first compound 3 µM
  viability, T/C: 7.9%
Second compound 3.16 µM, first compound 0.00949 µM
  viability, T/C: 74%
Second compound 3.16 µM, first compound 0.03 µM
  viability, T/C: 59%
Second compound 3.16 µM, first compound 0.0949 µM
  viability, T/C: 35.6%
Second compound 3.16 µM, first compound 0.3 µM
  viability, T/C: 23.3%
Second compound 3.16 µM, first compound 0.949 µM
  viability, T/C: 17.3%
Second compound 3.16 µM, first compound 3 µM
  viability, T/C: 11.7%
Second compound 10 µM, first compound 0.00949 µM
  viability, T/C: 73.5%
Second compound 10 µM, first compound 0.03 µM
  viability, T/C: 54.8%
Second compound 10 µM, first compound 0.0949 µM
  viability, T/C: 34.3%
Second compound 10 µM, first compound 0.3 µM
  viability, T/C: 27.5%
Second compound 10 µM, first compound 0.949 µM
  viability, T/C: 16.8%
Second compound 10 µM, first compound 3 µM
  viability, T/C: 11.7%

## Nc1ncn(C2CC(O)C(CO)O2)c(=O)n1 (stereo not given) + NC1CC1c1ccc(-c2cccc(O)c2)cc1
Second compound 0.1 µM
  pIC50: 6.51
Second compound 0.316 µM
  pIC50: 6.84
Second compound 1 µM
  pIC50: 6.63
Second compound 3.16 µM
  pIC50: 6.64
Second compound 10 µM
  pIC50: 6.59
Second compound 0.1 µM, first compound 0.00316 µM
  viability, T/C: 95.1%
Second compound 0.1 µM, first compound 0.01 µM
  viability, T/C: 90.3%
Second compound 0.1 µM, first compound 0.0316 µM
  viability, T/C: 79.2%
Second compound 0.1 µM, first compound 0.1 µM
  viability, T/C: 62.8%
Second compound 0.1 µM, first compound 0.316 µM
  viability, T/C: 49.7%
Second compound 0.1 µM, first compound 1 µM
  viability, T/C: 43.9%
Second compound 0.316 µM, first compound 0.00316 µM
  viability, T/C: 73.6%
Second compound 0.316 µM, first compound 0.01 µM
  viability, T/C: 74.5%
Second compound 0.316 µM, first compound 0.0316 µM
  viability, T/C: 67.6%
Second compound 0.316 µM, first compound 0.1 µM
  viability, T/C: 52.4%
Second compound 0.316 µM, first compound 0.316 µM
  viability, T/C: 44.9%
Second compound 0.316 µM, first compound 1 µM
  viability, T/C: 41%
Second compound 1 µM, first compound 0.00316 µM
  viability, T/C: 70.4%
Second compound 1 µM, first compound 0.01 µM
  viability, T/C: 70.9%
Second compound 1 µM, first compound 0.0316 µM
  viability, T/C: 62.8%
Second compound 1 µM, first compound 0.1 µM
  viability, T/C: 57%
Second compound 1 µM, first compound 0.316 µM
  viability, T/C: 47.9%
Second compound 1 µM, first compound 1 µM
  viability, T/C: 41.2%
Second compound 3.16 µM, first compound 0.00316 µM
  viability, T/C: 74.7%
Second compound 3.16 µM, first compound 0.01 µM
  viability, T/C: 57.7%
Second compound 3.16 µM, first compound 0.0316 µM
  viability, T/C: 68.5%
Second compound 3.16 µM, first compound 0.1 µM
  viability, T/C: 56.3%
Second compound 3.16 µM, first compound 0.316 µM
  viability, T/C: 45.4%
Second compound 3.16 µM, first compound 1 µM
  viability, T/C: 39.3%
Second compound 10 µM, first compound 0.00316 µM
  viability, T/C: 63.3%
Second compound 10 µM, first compound 0.01 µM
  viability, T/C: 73.7%
Second compound 10 µM, first compound 0.0316 µM
  viability, T/C: 69.9%
Second compound 10 µM, first compound 0.1 µM
  viability, T/C: 57.6%
Second compound 10 µM, first compound 0.316 µM
  viability, T/C: 49.7%
Second compound 10 µM, first compound 1 µM
  viability, T/C: 41.4%
